A short description of series [1]: In vitro dye release from dye-loaded microneedle patch into parafilm-covered gelatin. The format is physicochemical. The settings on record: 10% gelatin covered with parafilm. The method, then: In order to show in vitro release of the microneedles visually, a resin/dye paste was prepared. A biocompatible resin (Dental SG) from Formlabs (Somerville, MA, USA) and sulforhodamine B (SKU: 230162-5G, MilliporeSigma; Burlington, MA, USA) as dye were used. Due to the small size of the microneedles, the dye particles were ground into finer particles with smaller sizes. The encapsulation of unground and ground dye in microneedles was compared by preparing microneedles with both unground and ground sulforhodamine B particles. The unground and ground particles of the dye are shown in FIGS. 35a and 35b, respectively, and the size distribution of the unground and ground dye is shown in FIG. 35c. On average, the unground and ground dye particles had particle sizes of about 50 micrometers and 6 micrometers, respectively. […] A solid acrylic ring was added around the substrate so that the microneedle patch could be held and applied easily (see FIG. 35g). The in vitro dye release experiment is shown schematically in FIG. 35h. A 10% gelatin (gelatin from porcine skin, SKU: G2500-1KG from Millipore Sigma) solution was prepared as a model tissue and was poured in a petri dish. Then, it was placed in the refrigerator for 20 minutes to further solidify. A thin layer of parafilm (Parafilm ° M, Amcor; Zurich, Switzerland) was then used as a skin model to cover the gelatin solution in the petri dish.

A short description of series [2]: FTIR spectroscopy of drug encapsulated in resin microneedles (changes during fabrication). The format is physicochemical. The settings on record: drug encapsulated in cured resin microneedle vs powder. From the text: FTIR spectroscopy was used to evaluate possible changes in the encapsulated drugs during the fabrication process. A Nicolet 6700 (ThermoScientific™; Waltham, MA, USA) with a Smart™ iTX ATR accessory having a diamond crystal was used. […] In FTIR, an increase in the peak intensity usually reflects an increase in the amount (per unit volume) of the functional group associated with the molecular bond, whereas a shift in peak position usually reflects a change in the hybridization state or electron distribution in the molecular bond. […] The peaks at 1721 cm^−1 and 3400 cm^−1 are assigned to the stretching vibrations of C═O and O—H, respectively.

The next series deals with CD20+ cells. The series can be described thus: In vitro whole blood assay with RTX-loaded microneedle patches, flow cytometry. In kind it is cell-based, human. The method, then:
To evaluate the effectiveness of the treatment being delivered through microneedles an in vitro model, a whole blood assay was performed using Rituximab (RTX) as the drug. Rituximab is a chimeric monoclonal antibody against the protein CD20, which is primarily found on the surface of immune system B cells. When it binds to this protein it triggers cell death via Complement-Dependent Cytotoxicity (CDC). RTX is a good model to evaluate the mAb delivery mechanism mainly because of its clear pharmacodynamics outcome, the depletion of CD20+B-Cell in whole blood. Microneedle patches with five different amounts of RTX and a constant polymer-to-drug ratio were incubated in freshly collected human blood in a 24-well plate. Flow cytometry was used to quantify CD20+ and CD19+ cells in each well. […] CD20+ cells are present in samples (a) through (c) on the left but absent from samples (d) through (f) on the right. The conditions are as follows: (a) Buffy coat and serum without microneedle (MN) exposure and prior to incubation; (b) Blood without MN exposure and after 4 h incubation; (c) Blood with exposure to an inert MN after incubation; (d) Blood after incubation with one MN (20 μg RTX); (e) blood after incubation with five MNs (100 μg RTX); and (f) blood after incubation with 200 MNs (4 mg RTX). […]
For orientation: Flow cytometry measures light scatter and fluorescence of single cells or particles in a stream.

Another series concerns circulating B cells. The series can be described thus: In vivo primate study, rituximab IV versus microneedle transdermal delivery, circulating B cells by flow cytometry. The arrangement: species or system African green monkeys. The settings on record: IV dosing, first week. Here is the method:
An in vivo primate study was performed to compare the systemic pharmacodynamic effect of rituximab (RTX) following intravenous (IV) delivery versus microneedle-mediated, transdermal (TD) delivery in African green monkeys. […] The pharmacodynamic effect was quantified by the measurement of circulating B cells by flow cytometry (all these graphs are generated by flow cytometry), employing rituximab as a tool compound to assess the ability of a novel microneedle formulation and delivery technology to achieve systemic bioavailability of macromolecules (e.g. monoclonal antibodies) following transdermal delivery. […] The depletion over time for the two patches is shown in FIG. 29 for 0, 1, 7, 14 and 21 days.

Structures can show the parent of a compound that is named as a salt.

Consider `CCN(CC)c1ccc2c(-c3ccc(S(=O)(=O)O)cc3S(=O)(=O)[O-])c3ccc(=[N+](CC)CC)cc-3oc2c1` [sulforhodamine B], for which the “release of the dye into the gelatin solution” value in series [1] was “visible release”.

Take `CC(C)Cc1ccc(C(C)C(=O)[O-])cc1.[Na+]` (centres unmarked) [ibuprofen, ibuprofen sodium salt]: the “chemical structure during the fabrication process (FTIR)” value in series [2] is “remained unchanged”.

Regarding `CCN(CC)CC(=O)Nc1c(C)cccc1C` [lidocaine, lidocaine hydrochloride monohydrate], in series [2], the “chemical structure during the fabrication process (FTIR)” value is on record as “remained unchanged”.

Regarding Rituximab, the “activity of RTX after completion of the microneedle patch manufacturing process” value with CD20+ cells is recorded as “preserved”. Moreover, the “B-cell depletion in blood” value in the series with circulating B cells is recorded as “most significant B-cell depletion”.

These data come from US12589229B2, “Macroporous solid hard microneedles with embedded particulate drugs” (priority 2021, dated 2026).
